Results reported in PubChem BioAssay AID1322 (NMMLSC, 2008).
Activity calls are given as the source filed them. How the calls were made is not given here.

Molecular target: Bcl-2-like protein 1 (Homo sapiens) (UniProt Q07817)
Assay: Bim-Bcl-XL interaction inhibitors, potency, dose response, biochemical, multiplexed, bead flow cytometry, human Bcl-XL (AID 1322); on inhibition: test concentration not given here
Conditions: Bead-based flow cytometry, Bim peptide-Bcl-XL binding, MCF

Sequence of Bcl-2-like protein 1 (Homo sapiens) (Q07817 whole entry, looked up): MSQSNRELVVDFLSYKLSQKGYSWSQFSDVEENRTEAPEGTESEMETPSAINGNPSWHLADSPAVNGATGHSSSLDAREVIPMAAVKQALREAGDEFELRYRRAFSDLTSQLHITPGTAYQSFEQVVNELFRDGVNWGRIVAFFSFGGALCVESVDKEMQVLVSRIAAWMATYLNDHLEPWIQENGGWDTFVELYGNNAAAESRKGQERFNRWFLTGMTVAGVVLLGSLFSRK

outcome	EC50	Structure (SMILES)
inactive		CCc1ccc(NC(=O)Cc2ccc(OC)cc2)cc1
inactive		COc1ccc(C(=O)NC(=S)N2CCNC(=O)C2)cc1Br
inactive		O=C(N/N=C/c1cccnc1)c1cccc(S(=O)(=O)N2CCCC2)c1
	inactive	COc1cccc(/C=N/Nc2nn3cnnc3c3ccccc23)c1
inactive		CC(C(=O)Nc1cc([N+](=O)[O-])ccc1Cl)N1CCN(c2ccc(O)cc2)CC1 (configuration not stated)
inactive		COC(=O)c1[nH]c2ccccc2c1NC(=O)c1ccccc1[N+](=O)[O-]
inactive		CCOC(=O)C1=C(CC)Nc2ccccc2N=C1NC(=O)c1ccc(S(=O)(=O)N2CCOCC2)cc1
inactive		Cn1c(=O)c2cc(S(=O)(=O)Nc3cc(C(=O)O)cc(C(=O)O)c3)ccc2n(C)c1=O

Second part, the compound before the results:

Structure (SMILES)	outcome	EC50
O=C(O)CC1S/C(=N/N=C/C=C/c2ccccc2[N+](=O)[O-])NC1=O (configuration not stated)	inactive	
Cc1cc(-c2nnc(CCC(=O)NC(C)c3cccc4ccccc34)o2)no1 (configuration not stated)	inactive	
COc1ccc(CC(=O)Nc2ccccc2Oc2ccccc2)cc1	inactive	
Clc1nssc1=Nc1ccc(Br)cc1	inactive	
Cc1cc[n+]2cc(-c3cccc([N+](=O)[O-])c3)c(-c3cccc([N+](=O)[O-])c3)cc2c1	inactive	
Nc1ccc(-c2cn3cccnc3n2)cc1	inactive	
Nc1cccc(-c2cn3cccnc3n2)c1	inactive	
CC(NCc1ccc(-c2ccccc2)cc1)C(O)c1ccccc1 (configuration not stated)	inactive	

Same assay, conditions: Bead-based flow cytometry, Bim peptide-Bcl-XL binding, MCF

inhibition	Structure (SMILES)
inactive	CCc1ccc(NC(=O)CC2NCCNC2=O)cc1 (configuration not stated)
inactive	CCc1ccc(/C=C/C(=O)c2cc(Br)ccc(=O)c2O)cc1
inactive	COc1ccc(-n2c(SCC(=O)Nc3ccc(C(=O)O)cc3)nnc2-c2cccs2)cc1
inactive	O=C1CSc2ccc(C(=O)Nc3cccc(S(=O)(=O)Nc4ccc(Br)cc4)c3)cc2N1
inactive	Cc1cc(Cl)c(S(=O)(=O)NCC2CCCO2)cc1OCC(N)=O (configuration not stated)
inactive	O=C(c1cc(=O)c2ccccc2o1)N1CCN(c2ccccc2F)CC1
inactive	Cc1ccc(-c2ccc(CCC(=O)O)n2NC(=O)c2cccs2)cc1
inactive	COc1c(F)c(F)c(C(=O)Nc2ccccc2N2CCN(C(=O)C(C)C)CC2)c(F)c1F
inactive	CCOc1ccccc1NC(=O)CSc1nnc2ccc(-c3cccnc3)nn12
inactive	COc1cc(/C=C2\S/C(=N/S(=O)(=O)c3ccccc3)NC2=O)c([N+](=O)[O-])cc1OC
inactive	COc1cc(OC)c([N+](=O)[O-])cc1/C=N/NC(=O)c1ccncc1
inactive	O=C(COC(=O)c1ccccn1)NC1CCCCC1
inactive	COc1ccc(C(=O)/C=C/c2cc(OC)c(O)c(OC)c2)c(F)c1
inactive	CNC(=O)c1sc(-c2ccccn2)nc1C
inactive	COc1cc(CNc2ccc(N3CCCC3)cc2)cc(Cl)c1OC
inactive	Cc1ccc(-n2nc(C)c(C(=O)O)n2)c(C)c1
inactive	CCC(=O)N(CC)C1=C(O)c2ccccc2C(=O)C1=O
inactive	CC1Cc2ccccc2N1C(=O)c1ccc(N2CCCC2)c([N+](=O)[O-])c1 (configuration not stated)
inactive	CCOC(=O)/C(=C\c1ccc(Cl)cc1)c1nc2sc(C)c(C)c2c(=O)[nH]1
inactive	COc1cccc(/C=C2/SC(=O)N(C)C2=O)c1OCc1ccc(C(=O)O)cc1
inactive	Cc1nc(=S)c2ccccc2[nH]1
inactive	CCOC(=O)c1snc(-c2ccc(F)cc2)c1N
inactive	Cc1ccc(NC(=O)C/C(N)=N/OC(=O)c2ccccc2)cc1

inhibition	Structure (SMILES)
inactive	COC(=O)CCC(=O)Nc1sc(Cc2ccccc2)c(C)c1C(N)=O
inactive	COc1cc(/C=C2/NC(=O)N(Cc3ccccc3F)C2=O)cc(OC)c1O
inactive	CNc1ccc(Br)cc(C(=O)/C=C/c2cccc(OC)c2)c1=O
inactive	Cc1cc(NC(=O)CCSc2ccccc2)ccc1Br
inactive	CCN1CCN(c2cc(C)c3cc(NC(=S)N4CC(C)CC(C)C4)ccc3n2)CC1 (configuration not stated)
inactive	CCN1CCN(c2ccc(NC(=O)c3cccc4ncccc34)cc2)CC1
inactive	O=C(NCCCN1CCN(CCCNC(=O)c2cc([N+](=O)[O-])ccc2Cl)CC1)c1cc([N+](=O)[O-])ccc1Cl
inactive	COc1cccc(-n2nnnc2SCC(=O)Nc2cccc(NC(C)=O)c2)c1
inactive	COc1ccc(NC(=O)COc2ncnc3ccccc23)cc1S(=O)(=O)N1CCOCC1
inactive	COC(=O)/C(=C/c1ccc(F)cc1)NC(C)=O
inactive	COC(=O)c1cc(OC)c(OC)cc1NC(=O)Nc1cccc(C(C)=O)c1
inactive	CCOC(=O)c1sc(N)c(C(=O)Nc2ccccc2OC)c1C
inactive	O=C(NCC1CCCO1)c1ccc2c(=O)n(-c3ccc(F)cc3)c(=S)[nH]c2c1 (configuration not stated)
inactive	Cc1ccc2c(C)c(C(=O)Nc3nnc(C)s3)oc2c1
inactive	O=C(Nc1nnc(SCc2ccccn2)s1)C1CC(=O)N(c2ccccc2)C1 (configuration not stated)
inactive	C/C(=N\NC(=O)COc1ccc(C#N)cc1)c1ccccc1OC(F)F
inactive	COc1ccccc1Oc1ccc2c(c1)C(=O)N(c1ccccc1)C2=O
inactive	CC(C)=C1C(=O)NN(c2ccc(C)c(Cl)c2)C1=O
inactive	COc1ccccc1Oc1ccc2c(c1)C(=O)N(c1cccc3ncccc13)C2=O
inactive	CCOc1ccc(N2C(=O)C(Cl)=C(Nc3ccccc3O)C2=O)cc1
inactive	Clc1ccc2c(N/N=C/c3ccccc3Br)ccnc2c1
inactive	CCc1cccc(CC)c1-n1c(-c2cccnc2)n[nH]c1=S

The next lines start with the compound.

Structure (SMILES)	inhibition
CN1C2C=C3C(C#N)=C(N)C(C#N)(C#N)[C@@H](c4ccsc4)[C@@H]3C1CC2 (some centres not stated)	inactive
C#CCOCCOCCOCCNc1nc(N2CCN(C(=O)[C@H]([C@@H](C)CC)n3cc([C@@H](N)CC(C)C)nn3)CC2)nc(N2CCN(C(=O)[C@H](Cc3cc4ccccc4[nH]3)n3cc([C@@H](N)Cc4ccc(O)cc4)nn3)CC2)n1	inactive
CC(=O)OCCCNc1cc(Sc2nc3ccccc3s2)c2nonc2c1[N+](=O)[O-]	inactive
Cc1cc(-c2cc(-c3ccc(Cl)cc3)nc(N)c2C#N)co1	inactive
Cc1ccc(-c2c3c([nH]c(=S)c2C#N)CCCC3)o1	inactive
O=S1(=O)N=C(N(CCO)/N=C/c2ccncc2)c2ccccc21	inactive
CCN=c1scc(C)n1/N=C/c1ccc(O)c(O)c1O	inactive
CC(C)(C)C1CCC(=NNC(=O)c2cc3c(s2)CCCC3)CC1 (configuration not stated)	inactive
CC(C)COC(=O)/C(C#N)=C/c1cn(Cc2ccccc2)c2ccccc12	inactive
O=C(Nc1ccc2nc(-c3ccco3)c(-c3ccco3)nc2c1)NC1CC1	inactive
Cc1noc(C)c1CN1C(=O)NC(Cc2ccccc2)(Cc2ccccc2)C1=O	inactive
Cc1ccnc(NS(=O)(=O)c2ccc(NS(=O)(=O)c3cccs3)cc2)n1	inactive
C=CCSc1nc(N)c2c(C)c(C)sc2n1	inactive
N/C(=N\N=C/c1ccc(Br)cc1)N/N=C\c1ccc(Br)cc1	inactive
COc1ccc2cc(CN(CCc3ccccc3)Cc3nnnn3CC3CCCO3)c(=O)[nH]c2c1 (configuration not stated)	inactive
CN(C)c1ncc(C2=C(Cl)C(=O)C(N3CCCC3)=C(Cl)C2=O)s1	inactive
Cc1ccc(-c2cc(-c3ccc(Cl)cc3)c(C#N)c(N)n2)o1	inactive
CCn1c(SCC(=O)Nc2ccccc2-c2ccccc2)nnc1-c1ccoc1C	inactive
COc1ccc(-c2nnc(SCC(=O)Nc3nc4ccccc4s3)n2C)cc1	inactive
O=[N+]([O-])c1c(NCCCO)cc(Sc2nc3ccccc3s2)c2nonc12	inactive
O=C(Oc1ccc(-c2cnc3ccccc3n2)cc1)c1cccc([N+](=O)[O-])c1	inactive

Structure (SMILES)	inhibition
COc1cc(N=c2ssnc2Cl)c(OC)cc1Cl	inactive
Cc1ccc(-c2cc(-c3ccccc3)c(C#N)c(N)n2)o1	inactive
O=C(/C=C/c1ccc(-c2ccccc2[N+](=O)[O-])o1)c1ccccc1	inactive
COc1ccc(N2C(=O)C(Cl)=C(Nc3c(C)n(C)n(-c4ccccc4)c3=O)C2=O)cc1	inactive
c1coc(C2=Nc3cccc4cccc(c34)N2)c1	inactive
CC1N(C)c2cccc3cccc(c23)N1C	inactive
Cc1ccc(/C=N/NC(=O)CSc2nnc(-c3ccc(Cl)cc3)n2-c2ccccc2)o1	inactive
NC(=O)c1c(NC(=O)C2CCCO2)sc2c1CCCC2 (configuration not stated)	inactive
C/C(=C\c1ccco1)C1Nc2cccc3cccc(c23)N1	inactive
Cc1ccc(-c2nc3c(c(=O)[nH]c(=O)n3Cc3ccccc3)n2Cc2ccccc2)o1	inactive
CN(CCO)c1cc(Sc2nc3ccccc3s2)c2nonc2c1[N+](=O)[O-]	inactive
O=C(NCc1ccccc1)C(=O)Nc1nc(C23CC4CC(CC(C4)C2)C3)cs1	inactive
OCCC1CN(Cc2nc3c(s2)CCCC3)CCN1Cc1ccsc1 (configuration not stated)	inactive
C=CCn1c(C)c(C(C)=O)c(N2CCOCC2)nc1=S	inactive
O=C(Cn1c2ccccc2c(=O)c2ccccc21)N/N=C/c1ccc(N2CCCC2)c([N+](=O)[O-])c1	inactive
CN(CCCOc1ccccc1Br)Cc1ccccc1	inactive
O=C(Nc1cccc(-c2ccc3nncn3n2)c1)c1ccco1	inactive
O=[N+]([O-])c1ccc(-c2cn(-c3ccc(Cl)cc3)c(=S)[nH]2)cc1	inactive
NCC(c1ccccc1)c1c[nH]c2ccccc12 (configuration not stated)	inactive
Oc1ccc(C=NCC2COc3ccccc3O2)cc1 (configuration not stated)	inactive
